Experimental data: US20200030305A1, “LOCAL ANESTHETIC-CONTAINING ACIDIC EMULSION COMPOSITION” (Maruishi Pharmaceutical Co., Ltd., priority 2017, published 2020)
Where a name gives a salt, the structure may show the parent alone.

Assay: Oil-water partition ratio
Type: physicochemical
Details: 0.05% by mass aqueous solution vs oil phase soybean oil:MCT 1:1, 25° C.
Method: 5 g of an oil phase (soybean oil:medium-chain fatty acid triglyceride=1:1) was added to 5 g of a 0.05% by mass aqueous levobupivacaine hydrochloride solution, and the mixture was stirred with a vortex mixer for 1 minute. After that, the whole was transferred to a centrifugation tube and centrifuged at 3600 rpm at 25° C. for 10 minutes, and the aqueous phase was separated. The levobupivacaine concentration of the aqueous phase was measured by HPLC, and the oil-water partition ratio was determined.

CCCCN1CCCC[C@H]1C(=O)Nc1c(C)cccc1C [levobupivacaine hydrochloride, (2S)-1-butyl-N-(2,6-dimethylphenyl)piperidine-2-carboxamide]
proportion present in the aqueous phase (oil-water partition ratio): 94.3%
